Data reported in article PMC10175918 (Communications Biology, 2023).
Like-named read-outs stand apart in the source and are kept apart here.

Key:
Test in all cases: TGFα-shedding assay-based GPCR screening with chimeric Gα subunit proteins
Format in all cases: cell-based
Conditions in all cases: 10µM, Favipiravir 100μM
348 GPCRs [1] = biological target: T1, 348 GPCRs (Homo sapiens, UniProt O75473)
T1 construct: expressed in transfected cells; host or cells: HEK293A
T1 sequence (O75473 22-907): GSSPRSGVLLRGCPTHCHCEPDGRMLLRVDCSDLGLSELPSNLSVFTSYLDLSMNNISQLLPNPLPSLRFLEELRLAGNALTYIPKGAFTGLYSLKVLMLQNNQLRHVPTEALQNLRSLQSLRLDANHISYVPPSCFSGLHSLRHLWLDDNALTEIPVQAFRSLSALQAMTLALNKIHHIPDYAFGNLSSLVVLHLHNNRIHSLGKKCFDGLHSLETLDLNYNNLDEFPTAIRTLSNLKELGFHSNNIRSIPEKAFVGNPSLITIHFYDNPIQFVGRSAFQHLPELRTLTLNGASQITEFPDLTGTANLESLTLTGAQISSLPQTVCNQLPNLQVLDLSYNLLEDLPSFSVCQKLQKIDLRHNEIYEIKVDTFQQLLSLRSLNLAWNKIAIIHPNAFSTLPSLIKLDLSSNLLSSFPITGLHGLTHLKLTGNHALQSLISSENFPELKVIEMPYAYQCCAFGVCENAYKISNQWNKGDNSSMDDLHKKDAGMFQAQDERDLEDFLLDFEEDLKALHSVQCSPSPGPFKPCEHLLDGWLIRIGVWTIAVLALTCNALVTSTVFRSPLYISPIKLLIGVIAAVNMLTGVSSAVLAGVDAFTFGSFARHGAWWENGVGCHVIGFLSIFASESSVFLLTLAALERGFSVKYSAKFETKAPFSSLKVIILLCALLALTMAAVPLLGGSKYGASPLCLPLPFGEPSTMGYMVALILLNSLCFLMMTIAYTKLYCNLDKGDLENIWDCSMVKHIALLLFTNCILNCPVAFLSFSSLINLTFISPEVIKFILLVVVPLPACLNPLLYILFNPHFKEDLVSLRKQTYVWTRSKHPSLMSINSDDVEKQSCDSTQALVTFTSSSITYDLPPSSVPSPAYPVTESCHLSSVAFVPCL

348 GPCRs [2] = biological target: T2, 348 GPCRs (Homo sapiens, UniProt P30556)
T2 construct: expressed in transfected cells; host or cells: HEK293A
T2 sequence (P30556 1-359): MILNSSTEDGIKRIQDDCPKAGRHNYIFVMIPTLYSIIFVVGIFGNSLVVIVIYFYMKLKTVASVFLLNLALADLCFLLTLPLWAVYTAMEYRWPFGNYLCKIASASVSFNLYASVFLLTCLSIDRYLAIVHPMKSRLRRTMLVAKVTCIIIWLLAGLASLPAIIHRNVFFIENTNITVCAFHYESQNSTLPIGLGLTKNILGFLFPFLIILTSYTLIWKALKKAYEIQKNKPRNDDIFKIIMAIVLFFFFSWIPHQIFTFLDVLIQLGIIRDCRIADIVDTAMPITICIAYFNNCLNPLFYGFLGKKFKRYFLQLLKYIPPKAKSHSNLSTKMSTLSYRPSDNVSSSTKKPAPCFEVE

348 GPCRs [3] = biological target: T3, 348 GPCRs (Homo sapiens, UniProt P41597)
T3 construct: expressed in transfected cells; host or cells: HEK293A
T3 sequence (P41597 whole entry): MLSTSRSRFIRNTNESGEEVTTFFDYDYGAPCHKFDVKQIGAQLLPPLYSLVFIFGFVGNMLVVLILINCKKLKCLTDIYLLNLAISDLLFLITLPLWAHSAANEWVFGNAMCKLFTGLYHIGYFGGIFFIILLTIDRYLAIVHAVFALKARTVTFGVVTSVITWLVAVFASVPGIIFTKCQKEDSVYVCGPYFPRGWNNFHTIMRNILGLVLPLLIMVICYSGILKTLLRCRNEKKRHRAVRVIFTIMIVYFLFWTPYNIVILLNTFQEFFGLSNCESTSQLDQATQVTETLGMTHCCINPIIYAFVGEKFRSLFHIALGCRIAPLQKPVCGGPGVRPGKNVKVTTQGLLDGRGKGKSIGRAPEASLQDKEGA

348 GPCRs [4] = biological target: T4, 348 GPCRs (Homo sapiens, UniProt P46092)
T4 construct: expressed in transfected cells; host or cells: HEK293A
T4 sequence (P46092 1-362): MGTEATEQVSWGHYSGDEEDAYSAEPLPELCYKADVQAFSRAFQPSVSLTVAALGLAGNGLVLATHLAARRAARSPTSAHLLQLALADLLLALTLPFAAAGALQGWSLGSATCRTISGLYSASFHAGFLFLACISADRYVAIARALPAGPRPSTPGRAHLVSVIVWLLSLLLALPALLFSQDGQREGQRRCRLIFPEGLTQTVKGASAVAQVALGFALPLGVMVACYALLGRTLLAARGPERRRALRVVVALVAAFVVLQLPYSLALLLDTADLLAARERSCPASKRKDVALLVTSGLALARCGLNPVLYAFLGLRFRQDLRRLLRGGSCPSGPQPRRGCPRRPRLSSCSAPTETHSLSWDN

348 GPCRs [5] = biological target: T5, 348 GPCRs (Homo sapiens, UniProt P47804)
T5 construct: expressed in transfected cells; host or cells: HEK293A
T5 sequence (P47804 1-291): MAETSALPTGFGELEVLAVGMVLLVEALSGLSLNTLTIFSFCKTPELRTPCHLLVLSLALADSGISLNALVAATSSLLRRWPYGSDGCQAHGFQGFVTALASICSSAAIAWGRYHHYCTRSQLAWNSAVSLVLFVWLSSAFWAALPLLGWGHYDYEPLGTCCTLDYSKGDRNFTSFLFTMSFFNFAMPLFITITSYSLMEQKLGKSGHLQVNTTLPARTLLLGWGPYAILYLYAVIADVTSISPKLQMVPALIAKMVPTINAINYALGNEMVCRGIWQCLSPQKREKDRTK

348 GPCRs [6] = biological target: T6, 348 GPCRs (Homo sapiens, UniProt Q13258)
T6 sequence (Q13258 1-359): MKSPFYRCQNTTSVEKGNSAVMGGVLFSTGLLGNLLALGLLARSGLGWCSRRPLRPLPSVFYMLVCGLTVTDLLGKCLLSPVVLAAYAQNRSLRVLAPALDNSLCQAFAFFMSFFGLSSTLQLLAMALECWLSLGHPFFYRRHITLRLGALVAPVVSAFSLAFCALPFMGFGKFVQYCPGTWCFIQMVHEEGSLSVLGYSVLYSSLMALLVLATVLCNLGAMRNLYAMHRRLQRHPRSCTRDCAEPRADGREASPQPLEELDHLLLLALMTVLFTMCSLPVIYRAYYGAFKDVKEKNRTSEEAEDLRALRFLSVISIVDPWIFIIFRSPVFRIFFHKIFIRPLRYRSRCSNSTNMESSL

348 GPCRs [7] = biological target: T7, 348 GPCRs (Homo sapiens, UniProt Q15722)
T7 construct: expressed in transfected cells; host or cells: HEK293A
T7 sequence (Q15722 whole entry): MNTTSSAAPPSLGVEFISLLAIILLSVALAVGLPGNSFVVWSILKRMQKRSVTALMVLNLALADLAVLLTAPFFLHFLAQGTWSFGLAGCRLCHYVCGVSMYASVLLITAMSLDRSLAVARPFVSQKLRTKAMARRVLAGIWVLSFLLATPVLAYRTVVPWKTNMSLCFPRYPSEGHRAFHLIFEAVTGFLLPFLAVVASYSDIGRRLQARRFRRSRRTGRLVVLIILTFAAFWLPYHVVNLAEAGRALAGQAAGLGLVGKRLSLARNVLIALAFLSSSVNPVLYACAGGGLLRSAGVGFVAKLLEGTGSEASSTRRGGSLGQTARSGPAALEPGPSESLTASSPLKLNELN

[8] = LGR5 (leucine-rich repeat containing G protein-coupled receptor 5), read-out: % GPCR activation compared to TPA
[9] = AGTR1 (angiotensin II receptor, type 1), read-out: % GPCR activation compared to TPA
[10] = CCR2 (C-C motif chemokine receptor 2), read-out: % GPCR activation compared to TPA
[11] = CCR10 (C-C motif chemokine receptor 10), read-out: % GPCR activation compared to TPA
[12] = RGR (Retinal G protein coupled receptor), read-out: % GPCR activation compared to TPA
[13] = DP (prostaglandin D2 receptor), read-out: % GPCR activation compared to TPA
[14] = LTB4R (leukotriene B4 receptor), read-out: % GPCR activation compared to TPA
[15] = read-out: % GPCR activation compared to TPA, LGR5 (leucine-rich repeat containing G protein-coupled receptor 5)
[16] = read-out: % GPCR activation compared to TPA, AGTR1 (angiotensin II receptor, type 1)
[17] = read-out: % GPCR activation compared to TPA, CCR2 (C-C motif chemokine receptor 2)
[18] = read-out: % GPCR activation compared to TPA, CCR10 (C-C motif chemokine receptor 10)
[19] = read-out: % GPCR activation compared to TPA, RGR (Retinal G protein coupled receptor)
[20] = read-out: % GPCR activation compared to TPA, DP (prostaglandin D2 receptor)
[21] = read-out: % GPCR activation compared to TPA, LTB4R (leukotriene B4 receptor)

Row | activation at 100 µM (348 GPCRs [1]; [8]) | activation at 10 µM (348 GPCRs [2]; [9]) | activation at 100 µM (348 GPCRs [3]; [10]) | activation at 100 µM (348 GPCRs [4]; [11]) | activation at 100 µM (348 GPCRs [5]; [12]) | activation at 100 µM (348 GPCRs [6]; [13]) | activation at 10 µM (348 GPCRs [7]; [14]) | SMILES | activation at 100 µM (348 GPCRs [1]; [15]) | activation at 10 µM (348 GPCRs [2]; [16]) | activation at 100 µM (348 GPCRs [3]; [17]) | activation at 100 µM (348 GPCRs [4]; [18]) | activation at 100 µM (348 GPCRs [5]; [19]) | activation at 100 µM (348 GPCRs [6]; [20]) | activation at 10 µM (348 GPCRs [7]; [21])
1 | -2.87% | 1.08% | 2.78% | -6.97% | -2.11% | -1.84% | 0.849% | N#C[C@@]1(c2ccc3c(N)ncnn23)O[C@H](CO)[C@@H](O)[C@H]1O [GS441524] | – | – | – | – | – | – | –
2 | -2.31% | 0.178% | 5.66% | -6.03% | -1.43% | -1.59% | -0.299% | NC(=O)c1nc(F)cnc1O [favipiravir, 6-fluoro-3-hydroxy-2-pyrazinecarboxamide] | – | – | – | – | – | – | –
3 | -3.75% | -0.396% | 0.105% | 0.0221% | -1.3% | -0.606% | -0.697% | CC(C)C(=O)OC[C@H]1O[C@@H](n2ccc(NO)nc2=O)[C@H](O)[C@@H]1O [molnupiravir] | – | – | – | – | – | – | –

Second part, the compound before the results:

Row | SMILES | activation at 100 µM (348 GPCRs [1]; [8]) | activation at 10 µM (348 GPCRs [2]; [9]) | activation at 100 µM (348 GPCRs [3]; [10]) | activation at 100 µM (348 GPCRs [4]; [11]) | activation at 100 µM (348 GPCRs [5]; [12]) | activation at 100 µM (348 GPCRs [6]; [13]) | activation at 10 µM (348 GPCRs [7]; [14]) | activation at 100 µM (348 GPCRs [1]; [15]) | activation at 10 µM (348 GPCRs [2]; [16]) | activation at 100 µM (348 GPCRs [3]; [17]) | activation at 100 µM (348 GPCRs [4]; [18]) | activation at 100 µM (348 GPCRs [5]; [19]) | activation at 100 µM (348 GPCRs [6]; [20]) | activation at 10 µM (348 GPCRs [7]; [21])
4 | CCC(CC)COC(=O)[C@H](C)N[P@](=O)(OC[C@H]1O[C@@](C#N)(c2ccc3c(N)ncnn23)[C@H](O)[C@@H]1O)Oc1ccccc1 [remdesivir] | – | – | – | – | – | – | – | 12.4% | 1.2% | 5.23% | -7.76% | -0.554% | 6.06% | -0.224%
5 | CC(C)OC(=O)[C@H](C)N[P@](=O)(OC[C@H]1O[C@@H](n2ccc(=O)[nH]c2=O)[C@](C)(F)[C@@H]1O)Oc1ccccc1 [sofosbuvir] | – | – | – | – | – | – | – | -3.95% | 2.52% | -0.876% | 0.131% | -3.06% | -0.617% | 0.62%
